Data published in US20180059115A1, “METHODS FOR MONITORING POLYMORPHONUCLEAR MYELOID DERIVED SUPPRESSOR CELLS, AND COMPOSITIONS AND METHODS OF TREATMENT OF CANCER” (The Wistar Institute of Anatomy and Biology, priority 2016, published 2018).
Entries after “also recorded” stand apart in the source; their conditions may differ.

Tests used:
[1] = tested on: PMN isolated from healthy donors; assay: In vitro PMN LOX-1 induction by ER stress inducers, LOX-1 by flow cytometry; type: cell-based, human; conditions: overnight with GM-CSF, THG 1 μM, DTT 1 mM
Method: (§1) PMNs from healthy donors were isolated on a Histopaque gradient. 5×10^5 cells/ml were cultured for 12 hrs with 10 ng/ml of GM-CSF in the presence of dithiothreitol (DTT) (0.5, 1, 2 mM; Sigma), tunicamycin (0.5, 1, and 2 μg/ml; Sigma-Aldrich), or thapsigargin (0.5, 1, and 2 μM; Sigma). In some instances, 20 μM of the XBP-1 inhibitor BIO9 was added 3 hours prior to culture. Cells were then stained for flow cytometry or used for functional assays as described above.
Flow cytometry data were acquired using a BD LSR II flow cytometer and analyzed using FlowJo software (Tree Star) Immunofluorescent microscopy: Following deparaffinization and rehydration, heat induced antigen retrieval was performed using Tris-EDTA buffer pH 9. Followed by blocking with 5% BSA, tissues were stained with Lox1 antibody (Abcam; Cat no ab126538) and CD15 antibody (BD biosciences; Cat no 555400) at 1:200 dilution in 5% BSA each for 1 hour at room temperature. The following secondary antibodies were used Alexa Fluor anti-rabbit A647 (1:200 dilution in 5% BSA, Life technologies) for Lox1 and anti-mouse A514 (1:400 dilution in 5% BSA, Life technologies) for CD15 staining. CD15 staining was pseudo colored red and Lox1 staining was pseudo colored green. Nucleus was stained using DAPI (1:5000 dilution in PBS, Life technologies). Images were obtained using Leica TCS SP5 Confocal microscope. […]

[2] = tested on: T lymphocytes; assay: Three-way allogeneic MLR suppression assay (thymidine incorporation); type: cell-based, human; conditions: 1 μM NAC, 1000 U/ml catalase, 20 μM Nor-NOHA, 1:2 PMN:T cell ratio
From the text: Whole blood was enriched for PMNs using MACSxpress® Neutrophil Isolation Kit (Miltenyi) following the protocol provided by the manufacturer. Cells were then labeled with anti-Lox1-PE mAb (Biolegend) and then separated using anti-PE beads and MACS column (Miltenyi). For the three-way allogenic MLR suppression assay, T lymphocytes from one healthy donor were purified using the Human CD3+ T Cell Enrichment Column Kit (R&D Systems) and used as responder cells. Dendritic cells were generated from adherent monocytes from another healthy donor in the presence of 25 ng/mL GM-CSF and 25 ng/mL IL-4 (Peprotech) for 6 days and used as stimulator cells. Responder and stimulator cells were then mixed at a 10:1 ratio followed by the addition of Lox1+ or Lox1− PMNs. T lymphocyte proliferation was assessed after 5 days of culture by thymidine incorporation.
In some experiments, 1 μM N-acetyl cysteine (NAC; Sigma) or 20 μM of Nω-hydroxy-norarginine (nor-NOHA; Cayman Chemical) was added to the culture media to block ROS or agrinase I activity, respectively. T lymphocyte proliferation was assessed after 5 days of culture by thymidine incorporation.

[3] = tested on: T lymphocytes; assay: CD3/CD28 induced T-cell proliferation suppression assay (3H-thymidine uptake); type: cell-based, human; conditions: healthy donor PMN treated overnight with 1 μM THG, washed
Method: Concurrently, T-lymphocytes were isolated from the PBMC of the same patient as LOX-1+ PMN using human CD3+ T Cell Enrichment Column Kit. PMNs were plated at different ratios with […] T lymphocytes in a 96-well plate coated with 10 μg/ml anti-CD3 (clone UCHT1; BD Biosciences) followed by the addition of 1 μg/ml of soluble anti-CD28 (clone CD28.2; BD Biosciences). T lymphocyte proliferation was assessed after 3 days of culture by thymidine incorporation.
as §1

[4] = tested on: PMN isolated from healthy donors; assay: LOX-1 expression in PMN treated with cytokines or tumor-cell conditioned medium; type: cell-based, human; conditions: healthy donor PMN, 24 hr culture, GM-CSF added; TCM 20% v/v
Method: FIGS. 11A and 11B show the mechanism regulating LOX-1 expression on PMN-MDSC, specifically the percentage of LOX-1+ PMN (FIG. 11A) and expression of LOX-1 (FIG. 11B) in PMN isolated from 4 healthy donors and treated with indicated cytokines. Range of concentrations based on reported data were tested and only one for each cytokine is shown. Conditioned medium from PCI30 tumor cells (TCM) was used at 20% v/v concentration. Mean and SD are shown.
What could induce LOX-1 up-regulation in PMN-MDSC? Based on the fact that in endothelial cells LOX-1 can be induced by pro-inflammatory cytokines^35, we tested the effect of several cytokines as well as tumor-cell conditioned medium (TCM) on LOX-1 expression in PMN isolated from healthy donors. None of the tested pro-inflammatory cytokines (IL-1β, TNFα, IL-6) or TCM induced upregulation of LOX-1 in PMN after 24 hr culture (GM-CSF was added to protect PMN viability) (FIGS. 11A and 11B).

[5] = tested on: hepatic L02 cells; conditions: cited from earlier work

Compound | effect on LOX-expression in PMN / immune suppressive activity of LOX-1+ PMN-MDSC [2] | upregulation of LOX-1 in PMN [4] | further results
O[C@H](CS)[C@H](O)CS (racemic) [DTT, dithiothreitol] | – | – | LOX-1 expression in PMN [1]: dramatic up-regulation of LOX-1 expression
CC(=O)N[C@@H](CS)C(=O)O [NAC, N-acetylcysteine] | substantially decreased LOX-expression | – | –
N=C(NO)NCC[C@H](N)C(=O)O [Nor-NOHA, Nω-hydroxy-norarginine] | substantially decreased LOX-expression | – | –
C/C=C(/C)C(=O)O[C@H]1C(C)=C2[C@H]([C@@H]1OC(=O)CCCCCCC)[C@@](C)(OC(C)=O)C[C@H](OC(=O)CCC)[C@@]1(O)[C@H]2OC(=O)[C@@]1(C)O [THG, thapsigargin] | – | – | LOX-1 expression in PMN [1]: dramatic up-regulation of LOX-1 expression; immune suppressive activity of treated PMN (T-cell proliferation) [3]: caused acquisition of potent immune suppressive activity; also recorded: converted PMN to PMN-MDSC
IL-1β: pro-inflammatory cytokine | – | None | –
IL-6: pro-inflammatory cytokine | – | None | –
TNFα | – | None | –
catalase | substantially decreased LOX-expression | – | –
tunicamycin | – | – | LOX-1 expression under ER stress [5]: caused down-regulation of LOX-1
